Experiments:
EGFR-mediated signaling = settings: topical application, secondary to systemic erlotinib and cetuximab; cited from earlier work
[1] = Estimated solubility of menadione in single solvents; format: physicochemical
Method: This study focused on evaluating the solubility properties of menadione in hydrophilic and lipophilic excipients used in topical pharmaceutical products. Initially, solubility studies were conducted in single solvents.

[2] = Menadione compatibility with single solvent systems (1% w/w solutions, 1 month storage); format: physicochemical
Method: Based on the single solvent solubility data, a menadione compatibility study with selected solvents was conducted. Solutions containing 1% w/w of menadione were prepared, packaged in borosilicate clear glass vials, wrapped in aluminum foil and stored at 5° C. (dark), 25° C. (dark), and 40° C. (dark) for a period of 1 month. The physico-chemical properties of the 1% menadione single solvent solutions are presented in: Table 2.

[3] = test system: EGFR and other growth factor-related phosphatase; settings: cited from earlier work
[4] = In vitro percutaneous absorption of (14C)-Menadione Study #2, abraded skin; format: in vitro ADME, human; settings: abraded skin versus normal skin
Method: Percutaneous absorption of (^14C)-Menadione was also evaluated using abraded human skin in the lead formulation at 0.05, 0.1, and 0.2% Menadione and the backup formulation at 0.2% Menadione. Abraded skin was evaluated as a possible simulation of the type of broken and/or compromised skin that may be present in the case of a skin rash caused by an EGFR inhibitor. The respective skin permeation values are presented in: Table 18.

Estimated Solubility ([1]; in Benzyl Alcohol): Greater than 10% w/w | Estimated Solubility ([1]; in Dimethyl Isosorbide): Greater than 10% w/w | Estimated Solubility ([1]; in Mineral Oil): Less than 0.1% w/w | Estimated Solubility ([1]; in Polyethylene Glycol 400): Greater than 2% w/w | Estimated Solubility ([1]; in Propylene Glycol): Less than 1% w/w | Estimated Solubility ([1]; in Purified Water): Less than 0.04% w/w | Compatibility of menadione with solvent (physical appearance and potency by HPLC) ([2]; caprylic/capric triglyceride, diethyl sebacate, diisopropyl adipate, isopropyl myristate, 1 month at 5, 25, 40° C. dark): compatible | Compatibility of menadione with solvent (discoloration) ([2]; dimethyl isosorbide, transcutol and polyethylene glycol 400, all conditions evaluated): signs of incompatibility | Epidermal levels of the drug [4]: lower
Structure (SMILES): CC1=CC(=O)c2ccccc2C1=O [Menadione, 2-methyl-1,4-naphthoquinone]
EGFR-mediated signaling in human skin (EGFR-mediated signaling): restore EGFR-mediated signaling | EGF activating activity [3]: direct EGF activating activity | EGFR and other growth factor-related phosphatase inhibitory activity [3]: inhibitory activity
